From patent publication US8350042B2, “Antiviral compounds for the treatment of HCV infection” (The Regents of the University of California, priority 2008, dated 2013)

Test system: BM4-5 FEO replicon (genotype 1b HCV)
Test: HCV replicon assay
Conditions: cells stably expressing BM4-5 FEO replicon, 48 hours incubation
Method: HCV replicon assays were used to measure compound activity in cells. The impact of compounds on HCV replicon replication was assessed, using a method that was previously described (ref.: Wyles, D. L., Kaihara, K. A., Vaida, F. & Schooley, R. T. Synergy of small molecular inhibitors of hepatitis C virus replication directed at multiple viral targets. J Virol 81, 3005-8 (2007).) in cells stably expressing the BM4-5 FEO replicon in 96-well plates (10,000 cells/well). […] For testing the effect of compounds on the HCV replicon cells were incubated with compound for 48 hours and the results expressed as the mean (±SEM) of the relative light units for each condition. A sigmoidal dose response curve was then fitted to the data using Prism4.0 (GraphPad Software).

## CC(=O)c1ccc(C(=O)N[C@@H](CCCCN)C(=O)N2C[C@H](N)C[C@H](N)C2)cc1 [Formula III]
  Inhibition of HCV in a subgenomic replicon: inhibition of HCV
